Paper PMC12638379, “An innovative approach to development of new pyrazolylquinolin-2-one hybrids as dual EGFR and BRAF^V600E inhibitors” (Molecular Diversity, 2025)
Values joined by “and” are separate entries in the source; they are usually repeats but may differ in a detail not shown here. Equal values may be shown once. Read-outs that look alike come from different tables or passages of the source.

Experiments:
[1] = system: NCI 60 cancer cell lines; assay: NCI anticancer screening over a panel of 60 cancer cells, single concentration 10 µM; assay type: cell-based, human; details: for inhibition at 10 µM: Homo sapiens, read-out: % Growth Inhibition (GI %)
How it was run: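 Primary single-dose screen at 10 µM over the NCI panel of 60 human tumour cell lines (leukemia, CNS, lung, colon, kidney, ovary, breast, prostate). The standard NCI Developmental Therapeutics Program protocol was used.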

[2] = system: breast cancer (T47D) cell line; assay: MTT antiproliferative assay, T-47D
Method: The median inhibitory concentration (IC50) and GI50 (average IC50) against the three cancer cell lines were calculated. See Appendix B.
Cells were cultured using DMEM (Invitrogen/Life Technologies) supplemented with 10% FBS (Hyclone,), 10 ug/ml of insulin (Sigma), and 1% penicillin-streptomycin. Plate cells (cells density 1.2 – 1.8 × 10,000 cells/well) in a volume of 100µl complete growth medium + 100 ul of the tested compound per well in a 96-well plate for 24 hours before the MTT assay. In atypical experiment, one hundred micro liters of serial 10-fold diluted sterile tested compounds were added to final concentrations of […] using culture media as negative control. After 24 h of culture incubation and supernatants discarded. HOP-92 lung, MOLT-4 leukemia, and T-47D breast cell lines were trypsinized and washed with Ca2/Mg2 free PBS (pH 7.2). we removed cultures from incubator into laminar flow hood or other sterile work area. […] Each test should include a blank containing complete medium without cells. […] Add reconstituted MTT in an amount equal to 10% of the culture medium volume. Return cultures to incubator for 2-4 hours depending on cell type and maximum cell density. […] Spectrophotometrically absorbance was measured at a wavelength of 570 nm. Measure the background absorbance of multiwell plates at 690 nm and subtract from the […] measurement. Results from all experiments were recorded and the percentage of viable cells was calculated.

[3] = system: leukemia (MOLT-4) cell line; assay: MTT antiproliferative assay, MOLT-4; assay type: cell-based, human; details: for IC50: read-out: Antiproliferative activity IC50 ± SEM, MOLT-4
Method: After 24 h of culture incubation and supernatants discarded.

[4] = molecular target: T1, EGFR (Homo sapiens, UniProt P00533); assay: EGFR inhibitory assay; assay type: biochemical; details: for %inh: EGFR, unit not given
T1 construct: EGFR cytoplasmic domain (EGFR-CD, amino acids 645–1186); His6 (N); made in house; host or cells: Sf-9 insect cells (baculovirus)
T1 sequence (P00533 669-1210): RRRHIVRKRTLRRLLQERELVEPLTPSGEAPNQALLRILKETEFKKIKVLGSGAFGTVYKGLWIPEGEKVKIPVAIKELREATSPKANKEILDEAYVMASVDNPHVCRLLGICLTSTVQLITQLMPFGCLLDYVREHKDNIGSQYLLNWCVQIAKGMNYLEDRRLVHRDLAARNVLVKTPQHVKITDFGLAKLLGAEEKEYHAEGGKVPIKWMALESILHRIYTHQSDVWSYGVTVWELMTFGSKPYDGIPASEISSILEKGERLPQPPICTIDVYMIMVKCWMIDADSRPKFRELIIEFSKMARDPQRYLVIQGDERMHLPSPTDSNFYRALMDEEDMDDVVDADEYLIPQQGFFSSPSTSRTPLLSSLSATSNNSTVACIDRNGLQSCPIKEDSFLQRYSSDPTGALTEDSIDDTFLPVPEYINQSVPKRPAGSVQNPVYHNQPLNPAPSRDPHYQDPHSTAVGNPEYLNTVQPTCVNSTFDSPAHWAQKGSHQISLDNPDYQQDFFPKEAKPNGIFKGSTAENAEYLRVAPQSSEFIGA

[5] = MTT cytotoxicity on normal cell line WI-38; details: human, WI-38 normal cells, % viability
[6] = system: normal cell line WI-38; assay: MTT cytotoxicity on normal cell line WI-38

C/C(=N\Nc1ccc(S(N)(=O)=O)cc1)c1cnn(-c2cc(=O)[nH]c3ccc(Br)cc23)c1C [Compound 4e, (E)-4-(2-(1-(1-(6-bromo-2-oxo-1,2-dihydroquinolin-4-yl)-5-methyl-1H-pyrazol-4-yl)ethylidene)hydrazineyl)benzenesulfonamide]
activity in NCI screening (mean GI%) ([1]; 10 µM, over the NCI cancer cell lines): remarkable activity over the most NCI cancer cell lines
inhibition at 10 µM ([1]; 786-0, Renal cancer 786-0, 10 μM): 14.1%
inhibition at 10 µM ([1]; A498, Renal cancer A498, 10 μM): < 5%
inhibition at 10 µM ([1]; A549, Non-small cell lung cancer A549/ATCC, 10 μM): < 5%
inhibition at 10 µM ([1]; ACHN, Renal cancer ACHN, 10 μM): 19%
inhibition at 10 µM ([1]; BT-549, Breast cancer BT-549, 10 μM): 62.3%
inhibition at 10 µM ([1]; CAKI-1, Renal cancer CAKI-1, 10 μM): 23.3%
inhibition at 10 µM ([1]; CCRF-CEM, Leukemia CCRF-CEM, 10 μM): 91.8%
inhibition at 10 µM ([1]; COLO 205, Colon cancer COLO 205, 10 μM): 14.5%
inhibition at 10 µM ([1]; DU-145, Prostate cancer DU-145, 10 μM): 22.1%
inhibition at 10 µM ([1]; EKVX, Non-small cell lung cancer EKVX, 10 μM): 27.9%
inhibition at 10 µM ([1]; HCC 2998, Colon cancer HCC-2998, 10 μM): 26.6%
inhibition at 10 µM ([1]; HCT-15, Colon cancer HCT-15, 10 μM): 8.8%
inhibition at 10 µM ([1]; HCT-116, Colon cancer HCT-116, 10 μM): 41.5%
inhibition at 10 µM ([1]; HL-60, Leukemia HL-60(TB), 10 μM): 15.2%
inhibition at 10 µM ([1]; HOP-62, Non-small cell lung cancer HOP-62, 10 μM): 36.6%
inhibition at 10 µM ([1]; HOP-92, Non-small cell lung cancer HOP-92, 10 μM): 102%
inhibition at 10 µM ([1]; HT-29, Colon cancer HT29, 10 μM): < 5%
inhibition at 10 µM ([1]; Hs-578T, Breast cancer HS 578T, 10 μM): 71.6%
inhibition at 10 µM ([1]; IGROV-1, Ovarian cancer IGROV1, 10 μM): 43%
inhibition at 10 µM ([1]; K562, Leukemia K-562, 10 μM): 65%
inhibition at 10 µM ([1]; KM12, Colon cancer KM12, 10 μM): 46.3%
inhibition at 10 µM ([1]; LOX IMVI, Melanoma LOX IMVI, 10 μM): 61.8%
inhibition at 10 µM ([1]; Leukemia SR, 10 μM): 95.9%
inhibition at 10 µM ([1]; MCF7, Breast cancer MCF7, 10 μM): 76.8%
inhibition at 10 µM ([1]; MDA-MB-231, Breast cancer MDA-MB-231/ATCC, 10 μM): 68.5%
inhibition at 10 µM ([1]; MDA-MB-435, Melanoma MDA-MB-435, 10 μM): 95.6%
inhibition at 10 µM ([1]; MDA-MB-468, Breast cancer MDA-MB-468, 10 μM): 111%
inhibition at 10 µM ([1]; MOLT-4, Leukemia MOLT-4, 10 μM): 81.5%
inhibition at 10 µM ([1]; Melanoma M14, 10 μM): 26.9%
inhibition at 10 µM ([1]; Melanoma MALM-3M, 10 μM): 78.3%
inhibition at 10 µM ([1]; NCI-H23, Non-small cell lung cancer NCI-H23, 10 μM): 30.1%
inhibition at 10 µM ([1]; NCI-H226, Non-small cell lung cancer NCI-H226, 10 μM): 37.7%
inhibition at 10 µM ([1]; NCI-H322M, Non-small cell lung cancer NCI-H322M, 10 μM): 22.3%
inhibition at 10 µM ([1]; NCI-H460, Non-small cell lung cancer NCI-H460, 10 μM): 22.1%
inhibition at 10 µM ([1]; NCI-H522, Non-small cell lung cancer NCI-H522, 10 μM): 94.9%
inhibition at 10 µM ([1]; NCI/ADR-RES, Ovarian cancer NCI/ADR-RES, 10 μM): 9.87%
inhibition at 10 µM ([1]; OVCAR-3, Ovarian cancer OVCAR-3, 10 μM): 43.8%
inhibition at 10 µM ([1]; OVCAR-4, Ovarian cancer OVCAR-4, 10 μM): 32.3%
inhibition at 10 µM ([1]; OVCAR-5, Ovarian cancer OVCAR-5, 10 μM): 18.6%
inhibition at 10 µM ([1]; OVCAR-8, Ovarian cancer OVCAR-8, 10 μM): 19.5%
inhibition at 10 µM ([1]; Prostate cancer PC-3, 10 μM): 41.6%
inhibition at 10 µM ([1]; RPMI-8226, Leukemia RPMI-8226, 10 μM): 25.7%
inhibition at 10 µM ([1]; RXF 393, Renal cancer RXF 393, 10 μM): 31.4%
inhibition at 10 µM ([1]; SF-268, CNS Cancer SF-268, 10 μM): 42.7%
inhibition at 10 µM ([1]; SF-295, CNS Cancer SF-295, 10 μM): 8.09%
inhibition at 10 µM ([1]; SF-539, CNS Cancer SF-539, 10 μM): 58.4%
inhibition at 10 µM ([1]; SK-MEL-2, Melanoma SK-MEL-2, 10 μM): 80%
inhibition at 10 µM ([1]; SK-MEL-5, Melanoma SK-MEL-5, 10 μM): 45%
inhibition at 10 µM ([1]; SK-MEL-28, Melanoma SK-MEL-28, 10 μM): 65.3%
inhibition at 10 µM ([1]; SK-OV-3, Ovarian cancer SK-OV-3, 10 μM): 30.8%
inhibition at 10 µM ([1]; SN12C, Renal cancer SN12C, 10 μM): 38.8%
inhibition at 10 µM ([1]; SNB-19, CNS Cancer SNB-19, 10 μM): 54%
inhibition at 10 µM ([1]; SNB-75, CNS Cancer SNB-75, 10 μM): 78%
inhibition at 10 µM ([1]; SW-620, Colon cancer SW-620, 10 μM): 24.3%
inhibition at 10 µM ([1]; T47D, Breast cancer T-47D, 10 μM): 82.5%
inhibition at 10 µM ([1]; TK-10, Renal cancer TK-10, 10 μM): < 5%
inhibition at 10 µM ([1]; U-251, CNS Cancer U251, 10 μM): 62.1%
inhibition at 10 µM ([1]; UACC-62, Melanoma UACC-62, 10 μM): 88.6%
inhibition at 10 µM ([1]; UACC-257, Melanoma UACC-257, 10 μM): 33.7%
inhibition at 10 µM ([1]; UO-31, Renal cancer UO-31, 10 μM): 45.2%
viability at 0.4 µM ([2]; Homo sapiens, T47D, 0.4uM (log -0.41)): 74%
viability at 6.3 µM ([2]; Homo sapiens, T47D, 6.3uM (log 0.796)): 52.1%
viability at 25 µM ([2]; Homo sapiens, T47D, 25uM (log 1.398)): 42.1%
viability at 100 µM ([2]; Homo sapiens, T47D, 100uM (log 2), MTT absorbance 450 nm): 32.1%
IC50 ([2]; Homo sapiens, T47D, read-out: Antiproliferative activity IC50 ± SEM, T-47D, MTT): 8.02 ± 0.31 µM
% viability ([2]; T47D, 1.6ug (log 0.193)): 61.86%
% viability ([2]; T47D, 25uM (log 1.398), listed as Ws5, 25 µM): 42.072%
IC50 ([2]; read-out: Antiproliferative activity IC50 ± SEM, T-47D, MTT): 8.62 ± 0.34 µM
IC50 ([3]; Homo sapiens, MOLT-4, MTT): 8.62 ± 0.34 µM
% viability ([3]; MOLT-4, 0.4ug (log conc. -0.41)): 65.87%
% viability ([3]; MOLT-4, 1.6ug (log conc. 0.193), listed as Ws5): 58.42% and 58.419%
% viability ([3]; MOLT-4, 6.3ug (log conc. 0.796), listed as Ws5): 52.84% and 52.844%
% viability ([3]; MOLT-4, 25ug (log conc. 1.398), listed as Ws5): 44.14% and 44.141%
% viability ([3]; MOLT-4, 100ug (log conc. 2)): 35.495%
IC50 ([3]; MTT): 8.02 ± 0.31 µM
%inh ([4]; conc 0.01 (log -2)): 37%
%inh ([4]; conc 0.1 (log -1)): 50.6%
%inh ([4]; conc 1 (log 0)): 75.8%
%inh ([4]; conc 10 (log 1)): 88.1%
%inh ([4]; conc 100 (log 2)): 94.2%
IC50 ([4]; read-out: EGFR inhibition IC50 ± SEM): 0.055 ± 0.002 µM
viability at 24 h, 0.4 µM ([5]; WI38, 0.4uM (log conc. -0.41)): 83.2%
viability at 24 h, 1.6 µM ([5]; WI38, 1.6uM (log conc. 0.19)): 70.8%
viability at 24 h, 6.3 µM ([5]; WI38, 6.3uM (log conc. 0.8)): 61%
viability at 24 h, 25 µM ([5]; WI38, 25uM (log conc. 1.4)): 50.4%
viability at 24 h, 100 µM ([5]; WI38, 100uM (log conc. 2)): 42.1%
IC50 ([6]; Homo sapiens, read-out: Antiproliferative activity IC50 ± SEM): 29.6 ± 1.18 µM
% viability ([6]; WI38, 0.4uM (log conc. -0.41), listed as Ws5, 0.4 µM): 83.1677%
% viability ([6]; WI38, 1.6uM (log conc. 0.19), listed as Ws5, 1.6 µM): 70.8075%
% viability ([6]; WI38, 6.3uM (log conc. 0.8), listed as Ws5, 6.3 µM): 60.9938%
% viability ([6]; WI38, 100uM (log conc. 2), listed as Ws5, 100 µM): 42.1118%
